Laboratory results: patent US20100234238A1, “METHOD FOR PROFILING KINASE INHIBITORS” (Janssen Pharmaceutica N V, priority 2006, published 2010)

Tested on: tyrosine kinase activity in lysates prepared from cell lines
Assay: PAMCHIP96 tyrosine peptide array profiling of lysates of 27 cell lines in absence or presence of MTKI
Type: biochemical
Settings: 5 μM
Description: PAMGENE technology using the tyrosine peptide PAMCHIP96 allows the kinetic detection of the phosphorylation of 144 tyrosine peptides spotted onto a 3-dimensional porous well of a 96-well plate (www.pamgene.com). This technology can be used to measure the activity of purified kinases and the effects of kinase inhibitors thereon. Phosphotyrosine peptides are detected using a mix of fluorescently labeled anti-phosphotyrosine antibodies. Phosphorylation of peptides can be followed in real time due to the possibility of removing the reaction mix for a few seconds during the assay by a pumping mechanism to allow CCD camera detection of phosphopeptides bound to the fluorescent antibody. These consecutive datapoints (quantified spot images) generate a kinetic curve for each individual peptide, and allow for the calculation of initial velocities and endpoints associated with each individual peptide.
Cells cultured in appropriate medium in T175 flasks, treated with compound if necessary, are harvested at 70-90% confluency.
Media is removed, cells are washed with 10 ml ice cold PBS containing 0.1 mM NaVO4 and lysed in 1 ml of M-PER buffer (PIERCE) containing phosphatase and protease inhibitors (HALT, PIERCE). Cells are collected by scraping, and centrifuged for 10 minutes at 12 000×g. Supernatant lysates are filtered through a 0.2 micrometer filter (Anotop 0.2 μm anopore filter; Whatmann). Lysates are flash frozen in liquid nitrogen and stored at −80C.
Just prior to the PAMCHIP experiment, total protein content is quantitated in the lysates and lysates are diluted to 1 mg/ml in a total volume of 200 μl, with M-PER phosphatase and protease inhibitors (HALT, PIERCE). 10 μg of total lysate (corresponding to 10 μl) will be used per well on the PAMCHIP96.
To all 200 μl lysates 10 units of benzonase (Novagen) is added and lysates are further incubated for 30 min on ice and next centrifuged for 10 minutes at 12 000×g. The supernatant is then 1:1 diluted with compound or DMSO diluted to the appropriate concentration in water, and lysates are further incubated exactly 60 min on ice. Meanwhile, a PAMCHIP96 tyrosine peptide chip (PAMGENE) is blocked with 2% BSA (filtered through a 0.2 μm anopore filter; Whatmann) using the standard setting of a PAMSTATION96 (PAMGENE).
The composition of the kinase buffer is as follows: 1×ABL buffer (NEB), 0.5 mg/ml BSA (from 10 mg/ml NEB stock), 100 μM ATP (dissolved and diluted in 1×ABL buffer), 5 μg/ml PY20-FITC (ExAlpha Biologicals, azide-free preparation). A twofold concentrated kinase buffer is prepared chilled on ice, DMSO or compound is added as appropriate, and the solution is added 1:1 to the (compound treated) ice cold lysates, and immediately applied to a tyrosine peptide PAMCHIP96. The assay is run on a PAMSTATION96 according to standard procedures: after loading of the plate, solution is pumped once onto the wells, a first exposure is read (150 mSec) and then a kinetic reading program (reading every 5 min for 150 mSec) is run for 60 min. Lysates are run in 6 technical replicates for each condition; replicates are always applied horizontally next to each other to avoid vertical strip effects of the chip.
The data (spot images) are further quantified and linked to the peptide identities using EVOLVE PAMGRID software (PAMGENE). The quantified data are then fit to a curve using CurveFitHT software (PAMGENE) using the Vinip2 curve fitting algorithm, applied on the first 30 min of the assay; the initial velocity is derived at the first kinetic time point read. All subsequent data analyses were done on initial velocities (Vini) using the software packages Omniviz and R (Ihaka, R. and Gentlemen, R. (1996) R: a language for data analysis and graphics. J. Comput. Graph. Stat., 5, 299-314).
After replacing the Vini's lower than 0.1 by 0.1, all Vini's were log 2-transformed to approach normality.

For COc1cc2ncnc3c2cc1OCCCCCN(C)Cc1ccc(Br)cc1N3 [MTKI, 4,6-ethanediylidenepyrimido[4,5-b][6,1,12]benzoxadiazacyclopentadecine, 17-bromo-8,9,10,11,12,13,14,19-octahydro-20-methoxy-13-methyl-], the “ratio of initial velocity of peptide phosphorylation” value (shortened to “ratio”) (A431 lysate, CDK7_157_169_S164) was 0.53, the “ratio” value (A431 lysate, CREB1_122_134_Y134/S133) was 0.63 and the “ratio” value (A431 lysate, DDR2_733_745_Y740) was 0.56. The “ratio” value (A431 lysate, MK10_216_228_T221/Y223) was 0.46, the “ratio” value (A431 lysate, NCF1_313_325_S315/S320) was 0.57 and the “ratio” value (A431 lysate, NPT2_501_513_T508) was 0.53. The “ratio” value (A431 lysate, PECA1_706_718_Y713) was 0.72, the “ratio” value (A431 lysate, PGFRB_768_780_Y771/Y775/Y778) was 0.97 and the “ratio” value (A431 lysate, PLCG1_764_776_Y771) was 0.82. The “ratio” value (A431 lysate, PRRX2_202_214_Y214) was 0.75, the “ratio” value (A431 lysate, RASA1_453_465_Y460) was 0.62 and the “ratio” value (A431 lysate, STAT2_683_695_Y690) was 0.57. For the same compound, the “ratio” value (A431 lysate, SYN1_2_14_S9) was 0.58, the “ratio” value (A431 lysate, TYRO3_679_691_Y686) was 0.52 and the “ratio” value (H322 lysate, CDK7_157_169_S164) was 0.88. The “ratio” value (H322 lysate, CREB1_122_134_Y134/S133) was 0.94, the “ratio” value (H322 lysate, DDR2_733_745_Y740) was 0.85 and the “ratio” value (H322 lysate, ENOG_37_49_Y43) was 0.76. For the same compound, the “ratio” value (H322 lysate, MK10_216_228_T221/Y223) was 0.76, the “ratio” value (H322 lysate, NCF1_313_325_S315/S320) was 0.88 and the “ratio” value (H322 lysate, NPT2_501_513_T508) was 0.88. For the same compound, the “ratio” value (H322 lysate, PECA1_706_718_Y713) was 0.73, the “ratio” value (H322 lysate, PGFRB_768_780_Y771/Y775/Y778) was 0.92 and the “ratio” value (H322 lysate, PLCG1_764_776_Y771) was 0.79. For the same compound, the “ratio” value (H322 lysate, PRRX2_202_214_Y214) was 0.85, the “ratio” value (H322 lysate, RASA1_453_465_Y460) was 0.83 and the “ratio” value (H322 lysate, STAT2_683_695_Y690) was 0.89. For the same compound, the “ratio” value (H322 lysate, SYN1_2_14_S9) was 0.91, the “ratio” value (H322 lysate, TYRO3_679_691_Y686) was 0.96 and the “ratio” value (H2122 lysate, CDK7_157_169_S164) was 0.90. The “ratio” value (H2122 lysate, CREB1_122_134_Y134/S133) was 0.85, the “ratio” value (H2122 lysate, DDR2_733_745_Y740) was 0.81 and the “ratio” value (H2122 lysate, ENOG_37_49_Y43) was 0.71. The “ratio” value (H2122 lysate, MK10_216_228_T221/Y223) was 0.79, the “ratio” value (H2122 lysate, NCF1_313_325_S315/S320) was 0.94 and the “ratio” value (H2122 lysate, NPT2_501_513_T508) was 0.90. For the same compound, the “ratio” value (H2122 lysate, PECA1_706_718_Y713) was 0.67, the “ratio” value (H2122 lysate, PLCG1_764_776_Y771) was 0.76 and the “ratio” value (H2122 lysate, PRRX2_202_214_Y214) was 0.84. The “ratio” value (H2122 lysate, RASA1_453_465_Y460) was 0.78, the “ratio” value (H2122 lysate, STAT2_683_695_Y690) was 0.90 and the “ratio” value (H2122 lysate, SYN1_2_14_S9) was 0.91. For the same compound, the “ratio” value (H2122 lysate, TYRO3_679_691_Y686) was 0.95, the “ratio” value (H3255 lysate, CDK7_157_169_S164) was 0.55 and the “ratio” value (H3255 lysate, CREB1_122_134_Y134/S133) was 0.73. The “ratio” value (H3255 lysate, DDR2_733_745_Y740) was 0.44, the “ratio” value (H3255 lysate, ENOG_37_49_Y43) was 0.76 and the “ratio” value (H3255 lysate, MK10_216_228_T221/Y223) was 0.47. The “ratio” value (H3255 lysate, NCF1_313_325_S315/S320) was 0.59, the “ratio” value (H3255 lysate, NPT2_501_513_T508) was 0.68 and the “ratio” value (H3255 lysate, PECA1_706_718_Y713) was 0.68. For the same compound, the “ratio” value (H3255 lysate, PGFRB_768_780_Y771/Y775/Y778) was 0.12, the “ratio” value (H3255 lysate, PLCG1_764_776_Y771) was 0.97 and the “ratio” value (H3255 lysate, PRRX2_202_214_Y214) was 0.67. The “ratio” value (H3255 lysate, RASA1_453_465_Y460) was 0.65, the “ratio” value (H3255 lysate, STAT2_683_695_Y690) was 0.72 and the “ratio” value (H3255 lysate, SYN1_2_14_S9) was 0.70. For the same compound, the “ratio” value (H3255 lysate, TYRO3_679_691_Y686) was 0.47, the “ratio” value (NCI-N87 lysate, CDK7_157_169_S164) was 0.82 and the “ratio” value (NCI-N87 lysate, CREB1_122_134_Y134/S133) was 0.82. The “ratio” value (NCI-N87 lysate, DDR2_733_745_Y740) was 0.95, the “ratio” value (NCI-N87 lysate, ENOG_37_49_Y43) was 0.91 and the “ratio” value (NCI-N87 lysate, MK10_216_228_T221/Y223) was 0.73. The “ratio” value (NCI-N87 lysate, NCF1_313_325_S315/S320) was 0.89, the “ratio” value (NCI-N87 lysate, NPT2_501_513_T508) was 0.88 and the “ratio” value (NCI-N87 lysate, PECA1_706_718_Y713) was 0.82. The “ratio” value (NCI-N87 lysate, PGFRB_768_780_Y771/Y775/Y778) was 0.32, the “ratio” value (NCI-N87 lysate, PLCG1_764_776_Y771) was 0.78 and the “ratio” value (NCI-N87 lysate, PRRX2_202_214_Y214) was 0.82. For the same compound, the “ratio” value (NCI-N87 lysate, RASA1_453_465_Y460) was 0.59, the “ratio” value (NCI-N87 lysate, STAT2_683_695_Y690) was 0.83 and the “ratio” value (NCI-N87 lysate, SYN1_2_14_S9) was 0.75. The “ratio” value (NCI-N87 lysate, TYRO3_679_691_Y686) was 0.85, the “ratio” value (SKBR3 lysate, CDK7_157_169_S164) was 0.97 and the “ratio” value (SKBR3 lysate, CREB1_122_134_Y134/S133) was 0.99. The “ratio” value (SKBR3 lysate, DDR2_733_745_Y740) was 0.93, the “ratio” value (SKBR3 lysate, MK10_216_228_T221/Y223) was 0.68 and the “ratio” value (SKBR3 lysate, NCF1_313_325_S315/S320) was 0.94. The “ratio” value (SKBR3 lysate, NPT2_501_513_T508) was 0.77, the “ratio” value (SKBR3 lysate, PECA1_706_718_Y713) was 0.68 and the “ratio” value (SKBR3 lysate, PLCG1_764_776_Y771) was 0.75. The “ratio” value (SKBR3 lysate, PRRX2_202_214_Y214) was 0.75, the “ratio” value (SKBR3 lysate, RASA1_453_465_Y460) was 0.88 and the “ratio” value (SKBR3 lysate, STAT2_683_695_Y690) was 0.81. For the same compound, the “ratio” value (SKBR3 lysate, SYN1_2_14_S9) was 1.03, the “ratio” value (SKBR3 lysate, TYRO3_679_691_Y686) was 0.90 and the “ratio” value (SNU484 lysate, CDK7_157_169_S164) was 0.67. For the same compound, the “ratio” value (SNU484 lysate, CREB1_122_134_Y134/S133) was 0.70, the “ratio” value (SNU484 lysate, DDR2_733_745_Y740) was 0.75 and the “ratio” value (SNU484 lysate, ENOG_37_49_Y43) was 0.68. The “ratio” value (SNU484 lysate, MK10_216_228_T221/Y223) was 0.72, the “ratio” value (SNU484 lysate, NCF1_313_325_S315/S320) was 0.80 and the “ratio” value (SNU484 lysate, NPT2_501_513_T508) was 0.85. The “ratio” value (SNU484 lysate, PECA1_706_718_Y713) was 0.64, the “ratio” value (SNU484 lysate, PLCG1_764_776_Y771) was 0.70 and the “ratio” value (SNU484 lysate, PRRX2_202_214_Y214) was 0.67. The “ratio” value (SNU484 lysate, RASA1_453_465_Y460) was 0.58, the “ratio” value (SNU484 lysate, STAT2_683_695_Y690) was 0.73 and the “ratio” value (SNU484 lysate, SYN1_2_14_S9) was 0.67. The “ratio” value (SNU484 lysate, TYRO3_679_691_Y686) was 0.85.
